Test results from US12295936B2, “Immunomodulating urea azalides” (Zoetis Services LLC, priority 2020, dated 2025).
In brackets after ≈: the same amount, converted by molar mass. Like-named read-outs stand apart in the source and are kept apart here.

Columns and labels:
[1] = tested on: IL-6; experiment: Plasma IL-6 biomarker in bovine M. haemolytica challenge; settings: bovine, in vivo
[2] = tested on: M. haemolytica; experiment: In-vitro MIC model (CLSI broth micro-dilution); settings: Mannheimia haemolytica
[3] = tested on: P. multocida; experiment: Murine P. multocida intranasal challenge study with lung tissue RNA sequence analysis; assay type: in vivo, mice; settings: subcutaneous 18 hours after challenge (5×10^3 CFU/mouse): tulathromycin 16 mg/kg, M9 32 mg/kg, ceftiofur 9 mg/kg; placebo 0%
Protocol: In one murine P. multocida intranasal challenge study, mice were administered tulathromycin (16 mg/kg; T02), M9 (32 mg/kg; T03), or ceftiofur (9 mg/kg; T04) by subcutaneous injection 18 hours after bacterial challenge (5×10^3 CFU/mouse) for lung tissue RNA sequence analysis. Survival at Day 7 was about 80%, 50%, and 90% for T02, T03, and T04, respectively, compared to placebo at 0%. Differential gene expression from total lung tissue RNA sequence analysis indicated at least 226 unique genes were up or down regulated (with significance) for T03. Output from ingenuity pathway analysis of these unique genes predicted major upstream regulators of the involved pathways. Data was analyzed based on the number of genes being modulated in the same direction that were associated with a given upstream regulator. An activation z-score of 2 or greater is considered significant and the direction change is indicated by +(activated) or − (inhibited). The top 5 pathways included: IL-9 signaling, glucocorticoid receptor signaling, prolactin signaling, JAK STAT signaling, and IL-17 signaling. The top 6 upstream regulators (activation z-score) included: lipopolysaccharide (−6.725), TNF (−4.669), IFNG (−5.759), IL-1β (−5.947), STAT1 (−2.787), and poly rl:rC-RNA (−5.289). Even though this study was run in the murine model, the top upstream regulators identified as being modulated by M9 include an almost ubiquitous overlap with the pathways identified in the natural disease study as being key mediators in BRD, and therefore is modulating highly relevant pathways in BRD pathobiology.

[4] = tested on: P. multocida; experiment: In-vitro MIC model (CLSI broth micro-dilution); settings: Pasteurella multocida, ATCC43137, read-out: Comparative MIC's, P. multocida ATCC 43137
[5] = tested on: E. coli; experiment: In-vitro MIC model (CLSI broth micro-dilution); settings: Escherichia coli, ATCC25922, read-out: Comparative MIC's, E. coli ATCC 25922

## CCCNC[C@]1(O)[C@H](C)O[C@@H](O[C@H]2[C@H](C)[C@@H](O[C@@H]3O[C@H](C)C[C@H](N(C)C)[C@H]3O)[C@](C)(O)C[C@@H](C)CN[C@H](C)[C@@H](O)[C@](C)(O)[C@@H](CC)OC(=O)[C@@H]2C)C[C@@]1(C)OC [Tulathromycin, (2R,3S,4R,5R,8R,10R,11R,12S,13S,14R)-11-(((2S,3R,4S,6R)-4-(dimethylamino)-3-hydroxy-6-methyltetrahydro-2H-pyran-2-yl)oxy)-2-ethyl-3,4,10-trihydroxy-13-(((2R,4R,5S,6S)-5-hydroxy-4-methoxy-4,6-dimethyl-5-((propylamino)methyl)tetrahydro-2H-pyran-2-yl)oxy)-3,5,8,10,12,14-hexamethyl-1-oxa-6-azacyclopentadecan-15-one]
[1]
  IL-6 levels (plasma) in bovine M. haemolytica challenge: significantly reduced
[2]; ATCC33396, read-out: Comparative MIC's, M. haemolytica ATCC 33396
  MIC: 1 µg/mL (≈ 1.24 µM)
[2]; read-out: Comparative MIC's, M. haemolytica 12726
  MIC: 2 µg/mL (≈ 2.48 µM)
[2]; read-out: Comparative MIC's, M. haemolytica 46571*
  MIC: 1 µg/mL (≈ 1.24 µM)
[3]
  Survival at Day 7: about 80%
[4]
  MIC: 1 µg/mL (≈ 1.24 µM)
[5]
  MIC: 2 µg/mL (≈ 2.48 µM)
